In patent US20210113733A1, “FIBROUS WOUND DRESSING COMPRISING AN ANTISEPTIC” (Coloplast A/S, priority 2018, published 2021):

Experiment: Octenidine extractable from impregnated hydrophilic polyurethane foam, no surfactant
Assay type: physicochemical
Details: for Release % water: 24 h extraction in water, UV 285 nm
Procedure: Discs of hydrophilic polyurethane foam were impregnated by applying a known volume of octenidine-containing solution to the surface of the foam and letting it soak into the foam matrix in a liquid:foam ratio which allowed the foam to be saturated with liquid. Afterwards, the impregnated foam was dried at RT overnight.
The dried foam disc was immersed in the extraction media for 24 h and the extracted octenidine concentration was determined by UV at 285 nm

Compound: CCCCCCCCN=c1ccn(CCCCCCCCCCn2ccc(=NCCCCCCCC)cc2)cc1 [Octenidine, octenidine]
- Release % phosphate buffer (23 mM) (plain foam impregnated with 0.1 w % OCT solution, 24 h extraction): 7%
- Release % water (plain foam impregnated with 0.1 w % OCT solution): 5%
- Release % water (plain foam impregnated with 0.5 w % OCT solution): 1.5%
- Release % water (plain foam impregnated with 1.0 w % OCT solution): 1.5%
